Here are results for 3 compounds from patent publication US6235780A, “ω-cycloalkyl-prostaglandin E1 derivatives” (Ono Pharmaceutical Co., Ltd., priority 1998, dated 2001).

For one assay, the target named is T1, mouse EP1 (Mus musculus, UniProt P35375).
T1 construct: expressed in transfected cells; host or cells: CHO cells
T1 sequence (P35375 1-405): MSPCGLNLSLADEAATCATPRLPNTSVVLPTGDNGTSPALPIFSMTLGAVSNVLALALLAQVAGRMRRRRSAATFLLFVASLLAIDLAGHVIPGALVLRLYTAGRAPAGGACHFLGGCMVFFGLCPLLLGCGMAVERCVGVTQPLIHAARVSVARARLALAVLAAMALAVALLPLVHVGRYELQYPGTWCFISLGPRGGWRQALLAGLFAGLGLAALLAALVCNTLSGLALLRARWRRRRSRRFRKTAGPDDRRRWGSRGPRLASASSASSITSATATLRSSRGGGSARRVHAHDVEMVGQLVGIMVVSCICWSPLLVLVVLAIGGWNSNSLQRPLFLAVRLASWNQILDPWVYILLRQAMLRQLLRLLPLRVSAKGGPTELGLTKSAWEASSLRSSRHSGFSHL
Description: Binding assay using expression cell of prostanoids receptor subtype: 3H-PGE2 binding inhibition, EP1. To be noted: 2.5 nM 3H-PGE2, CHO cell membrane fraction, pH 6.0, room temperature, 1 hour; read-out: Dissociation Constant Ki, EP1. How it is done:
(§1) (i) Binding assay using expression cell of prostanoids receptor subtype
(§2) The preparation of membrane fraction was carried out according to the method of Sugimoto et al. [J. Biol. Chem., 267, 6463-6466 (1992)], using expression CHO cell of the prostanoids receptor subtype (mouse EP1, EP2, EP3α, EP4).
(§3) The standard assay mixture containing membrane fraction (0.5 mg/ml), and ^3 H-PGE2 in a final volume of 200 μl was incubated at room temperature for 1 hour. The reaction was terminated by addition of 3 ml of ice-cooled buffer. The mixture was filtered through a GF/B glass filter under reduced pressure. The radioactivity associated with the filter was measured by liquid scintillation counter.
(§4) Kd and Bmax values were determined from Scatchard plots [Ann. N.Y. Acad. Sci., 51, 660 (1949)]. Non-specific binding was calculated as the binding in the presence of an excess (10 μM) of unlabeled PGE2. In the measurement of ^3 H-PGE2 binding inhibitory activity, 2.5 nM of ^3 H-PGE2 and various concentrations of the compounds of the present invention were added. The following buffer was used in all reactions.
(§5) Buffer; 10 mM potassium phosphate (pH 6.0), 1 mM EDTA, 10 mM MgCl2, 0.1 M NaCl.
(§6) The dissociation constant Ki (μM) of each compound was calculated by the following equation.

For a further assay, the target named is T2, mouse EP2 (Mus musculus, UniProt Q62053).
T2 construct: expressed in transfected cells; host or cells: CHO cells
T2 sequence (Q62053 whole entry): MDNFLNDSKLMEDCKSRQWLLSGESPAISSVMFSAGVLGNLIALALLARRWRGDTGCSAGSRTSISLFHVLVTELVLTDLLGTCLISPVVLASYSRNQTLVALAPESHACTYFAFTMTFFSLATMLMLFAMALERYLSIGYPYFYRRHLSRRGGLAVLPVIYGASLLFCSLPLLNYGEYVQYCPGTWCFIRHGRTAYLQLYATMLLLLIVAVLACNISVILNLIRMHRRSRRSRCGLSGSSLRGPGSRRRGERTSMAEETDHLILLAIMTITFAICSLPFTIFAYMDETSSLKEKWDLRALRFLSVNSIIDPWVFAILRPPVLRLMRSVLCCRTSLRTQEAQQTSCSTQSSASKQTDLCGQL
Description: Binding assay using expression cell of prostanoids receptor subtype: 3H-PGE2 binding inhibition, EP2. The note with it: 2.5 nM 3H-PGE2, CHO cell membrane fraction, pH 6.0, room temperature, 1 hour; read-out: Dissociation Constant Ki, EP2. Here is the method: as §1, §2, §3, §4, §5, §6

The target in a further assay is T3, mouse EP3α (Mus musculus, UniProt P30557).
T3 construct: expressed in transfected cells; host or cells: CHO cells
T3 sequence (P30557 1-365): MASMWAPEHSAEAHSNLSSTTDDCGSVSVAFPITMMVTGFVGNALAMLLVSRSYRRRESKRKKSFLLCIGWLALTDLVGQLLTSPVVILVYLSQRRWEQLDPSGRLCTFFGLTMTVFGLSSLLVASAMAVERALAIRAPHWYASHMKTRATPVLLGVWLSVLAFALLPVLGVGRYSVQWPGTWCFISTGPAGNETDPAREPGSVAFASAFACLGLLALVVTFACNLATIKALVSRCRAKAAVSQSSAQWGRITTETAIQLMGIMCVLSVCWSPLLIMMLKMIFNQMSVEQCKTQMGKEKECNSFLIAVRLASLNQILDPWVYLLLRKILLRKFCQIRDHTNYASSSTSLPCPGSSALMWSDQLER
Description: Binding assay using expression cell of prostanoids receptor subtype: 3H-PGE2 binding inhibition, EP3α. The note with it: 2.5 nM 3H-PGE2, CHO cell membrane fraction, pH 6.0, room temperature, 1 hour; read-out: Dissociation Constant Ki, EP3α. Here is the method:
as §1, §2, §3, §4, §5, §6

In the next assay the target is T4, mouse EP4 (Mus musculus, UniProt P32240).
T4 construct: expressed in transfected cells; host or cells: CHO cells
T4 sequence (P32240 whole entry): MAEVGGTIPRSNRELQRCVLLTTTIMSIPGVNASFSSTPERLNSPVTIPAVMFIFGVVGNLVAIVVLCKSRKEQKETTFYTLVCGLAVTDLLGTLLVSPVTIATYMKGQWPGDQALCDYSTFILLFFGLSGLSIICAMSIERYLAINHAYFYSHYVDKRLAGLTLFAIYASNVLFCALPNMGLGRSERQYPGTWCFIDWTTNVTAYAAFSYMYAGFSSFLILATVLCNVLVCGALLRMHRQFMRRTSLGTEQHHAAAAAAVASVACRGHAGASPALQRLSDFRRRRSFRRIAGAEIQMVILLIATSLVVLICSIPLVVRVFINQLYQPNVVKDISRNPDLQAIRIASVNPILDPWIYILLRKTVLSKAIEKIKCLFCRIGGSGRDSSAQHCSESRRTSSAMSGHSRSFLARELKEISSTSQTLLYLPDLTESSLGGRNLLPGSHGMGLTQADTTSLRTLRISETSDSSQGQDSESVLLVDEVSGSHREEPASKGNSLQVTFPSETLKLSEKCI
Description: Binding assay using expression cell of prostanoids receptor subtype: 3H-PGE2 binding inhibition, EP4. To be noted: 2.5 nM 3H-PGE2, CHO cell membrane fraction, pH 6.0, room temperature, 1 hour; read-out: Dissociation Constant Ki, EP4. Here is the method: as §1, §2, §3, §4, §5, §6

pKi: −log10 of the molar value. A value given as a limit tells only on which side of the number the result lay.

Consider `CCC1([C@@H](O)CCC[C@@H]2[C@@H](CCCCCCC(=O)O)[C@H](Cl)C[C@H]2O)CCC1` [Example 3(a), (9β,11α,16α)-9-Chloro-11,16-dihydroxy-17,17-propano-20-norprostanoic acid], for which the pKi – broadly, the Ki on a negative log10 scale, so that one unit is a factor of ten – was 5.46 on mouse EP1, 7.77 on mouse EP2, under 5.00 at mouse EP3α and under 5.00 at mouse EP4.
Turning to `CCC1([C@@H](O)C/C=C/[C@@H]2[C@@H](CCCCCCC(=O)O)[C@H](Cl)C[C@H]2O)CCC1` [Example 2, (9β,11α,16α)-9-Chloro-11,16-dihydroxy-17,17-propano-20-norprosta-13E-enoic acid], the pKi is 5.24 at mouse EP1, 8.09 at mouse EP2, under 5.00 on mouse EP3α and 5.77 at mouse EP4.
On to `CCC1([C@@H](O)C/C=C/[C@@H]2[C@@H](CCCCCCC(=O)O)[C@H](F)C[C@H]2O)CCC1` [Example 2(a), (9β,11α,16α)-9-Fluoro-11,16-dihydroxy-17,17-propano-20-norprosta-13E-enoic acid], for which the pKi at mouse EP1 was under 5.00; on mouse EP2 it was 7.18; on mouse EP3α, under 5.00; on mouse EP4 it was under 5.00.
